# From patent publication US20250326785A1, “SODIUM SALT AND ETHANOLAMINE SALT OF 23-HYDROXYTORMENTIC ACID” (HUYABIO International, LLC, priority 2024, published 2025)
# Like-named read-outs stand apart in the source and are kept apart here.
# What was measured:
# [1] = Hydration study in methanol/water aw 0.1, 0.5 and 0.9; type: physicochemical
# Text: Hydration studies of ethanolamine salt.
# [2] = for HPLC Conc./: based on free acid
# Text: pH-dependent solubility of the HBI- 3808 sodium salt of Pattern 2 was studied.
# pH dependent solubility of the HBI- 3808 sodium salt of Pattern 5 was studied.
# [3] = Varying humidity (VH)-XRPD; type: physicochemical; settings: 30° C.
# Procedure: During the sorption phase, sodium salt Pattern 2 was observed between 40-60% RH. […] A mixture of sodium salt Pattern 2 and 5 was also observed at 80% RH. […] During the second desorption, from 90% RH to 40% RH, sodium salt Pattern 5 was maintained.
# VH-XRPD analysis was carried out between 40-0% RH (FIG. 5L).
# [4] = Dynamic vapor sorption (DVS) analysis; type: physicochemical
# Procedure: GC analysis indicated residual solvent contents of 2847 ppm methanol; and 27 ppm TBME. […] No residual methanol or TBME was detected due to signal over-lap. […] TG-DSC analysis indicated two weight losses. The first weight loss of 2.3 wt. % was observed between 20-170° C. […] In the DSC thermogram, three endothermic events were observed (FIG. 17I). […] FT-IR (FIG. 17J) and Raman spectra (FIG. 17K) were recorded for reference. […] XRPD pattern of the ethanolamine salt was retained post-DVS (FIG. 17N). […] However, at the end of the experiment the solids on the microscope slide had discolored (FIG. 17O).
# [5] = Stability study at 25° C./60% RH, 40° C./75% RH and 60° C. (XRPD, HPLC purity, impurity tracking); settings: for XRPD: number = sodium salt XRPD Pattern
# Text: Stability of HBI-3808 Sodium Salt Pattern 2 was studied over 13 weeks.
# Table 2F presents impurity tracking results from a 13-week stability study of HBI-3808 sodium salt of Pattern 2. […]
# [6] = 40° C./75% RH (open vial), 2 Weeks
# [7] = 40° C./75% RH (open vial), 4 Weeks
# [8] = 40° C./75% RH (open vial), 8 Weeks
# [9] = 40° C./75% RH (open vial), 13 Weeks
# [10] = impurity tracking, 25° C./60% RH, 1 week
# [11] = impurity tracking, 25° C./60% RH, 2 weeks
# [12] = impurity tracking, 25° C./60% RH, 4 weeks
# [13] = impurity tracking, 25° C./60% RH, 8 weeks
structure (smiles),measurement,setting,value
"CC1CCC2(C(=O)[O-])CCC3(C)C(=CCC4C5(C)CC(O)C(O)C(C)(CO)C5CCC43C)C2C1(C)O.[Na+] (stereo not shown) [HBI-3808 sodium salt of Pattern 2, sodium salt of 23-hydroxytormentic acid]",XRPD of solids recovered at the end of the experiment,[1],consistent with sodium salt Pattern 2
same,final Measured pH,[2]; FaSSGF,9.35
same,HPLC Conc./,[2]; FaSSGF,>221.2 mg/mL
same,concentration,[2]; pH 1.2,< 100 µg/mL
same,HPLC Conc./,"[2]; target pH 1.2 chloride buffer, start 200 mg/mL (ethanolamine salt 100 mg/mL)",<0.005 mg/mL
same,HPLC Conc./,[2]; target pH 3.0 acetate buffer,0.006 mg/mL
same,HPLC Conc./,[2]; target pH 4.0 acetate buffer,<0.005 mg/mL
same,HPLC Conc./,[2]; target pH 6.8 phosphate buffer,0.4 mg/mL
same,HPLC Conc./,[2]; target pH 8.0 phosphate buffer,15.3 mg/mL
same,XRPD pattern during desorption,[3]; 40-0% RH,no change in XRPD Pattern
same,XRPD pattern during sorption,[3]; at 70% RH,composite XRPD diffractogram of sodium salt Pattern 2 and 5
same,XRPD pattern during sorption,[3]; at 90% RH,only sodium salt Pattern 5 was observed
same,XRPD of recovered material post-DVS,[4],consistent with sodium salt of Pattern 5
same,reversibility of mass uptake/loss,[4]; Pattern 2: second DVS cycle,reversible
same,water (mass) uptake,[4]; at 80% RH/25° C. (Pattern 2: second DVS cycle),0.8 wt. %
same,irreversible mass loss,[4]; first sorption cycle between 60-80% RH,about 2.4 wt. %
same,HPLC/ % area,"[5]; 25° C./60% RH (open vial), 1 Week",97.3 % area
same,HPLC/ % area,"[5]; 25° C./60% RH (open vial), 2 Weeks",97.2 % area
same,HPLC/ % area,"[5]; 25° C./60% RH (open vial), 4 Weeks",97.3 % area
same,HPLC/ % area,"[5]; 25° C./60% RH (open vial), 8 Weeks",96.7 % area
same,HPLC/ % area,"[5]; 25° C./60% RH (open vial), 13 Weeks",97.1 % area
same,HPLC/ % area,"[5]; 40° C./75% RH (open vial), 1 Week",97.1 % area
same,HPLC/ % area,[5]; [6],97.0 % area
same,XRPD,[5]; [6],5
same,HPLC/ % area,[5]; [7],97.3 % area
same,XRPD,[5]; [7],5
same,HPLC/ % area,[5]; [8],96.3 % area
same,XRPD,[5]; [8],5
same,HPLC/ % area,[5]; [9],97.0 % area
same,XRPD,[5]; [9],5
same,HPLC/ % area,"[5]; 60° C. (closed vial), 1 Week",97.2 % area
same,XRPD,"[5]; 60° C. (closed vial), 1 Week",2
same,HPLC/ % area,"[5]; 60° C. (closed vial), 2 Weeks",97.3 % area
same,XRPD,"[5]; 60° C. (closed vial), 2 Weeks",2
same,HPLC/ % area,"[5]; 60° C. (closed vial), 4 Weeks",97.3 % area
same,XRPD,"[5]; 60° C. (closed vial), 4 Weeks",2
same,HPLC/ % area,"[5]; 60° C. (closed vial), 8 Weeks",96.4 % area
same,XRPD,"[5]; 60° C. (closed vial), 8 Weeks",2
same,HPLC/ % area,"[5]; 60° C. (closed vial), 13 Weeks",97.3 % area
same,change in chemical purity by HPLC over the stability study,"[5]; all conditions (25° C./60% RH; 40° C./75% RH; 60° C.), 13 weeks (Pattern 5: 4 weeks)",no significant decrease in chemical purity
same,RRT 0.801,[5]; [10],0.10 % area
same,RRT 0.970,[5]; [10],0.10 % area
same,RRT 1.000 (HBI-3808),[5]; [10],97.31 % area
same,RRT 1.025 (Isomer of HBI-3808),[5]; [10],2.48 % area
same,Total Impurities,[5]; [10],2.69 % area
same,RRT 0.970,[5]; [11],0.12 % area
same,RRT 1.000 (HBI-3808),[5]; [11],97.29 % area
same,RRT 1.025 (Isomer of HBI-3808),[5]; [11],2.39 % area
same,RRT 1.935,[5]; [11],0.20 % area
same,Total Impurities,[5]; [11],2.71 % area
same,RRT 0.970,[5]; [12],0.11 % area
same,RRT 1.000 (HBI-3808),[5]; [12],97.47 % area
same,RRT 1.025 (Isomer of HBI-3808),[5]; [12],2.41 % area
same,Total Impurities,[5]; [12],2.53 % area
same,RRT 0.970,[5]; [13],0.10 % area
same,RRT 1.000 (HBI-3808),[5]; [13],96.99 % area
same,RRT 1.025 (Isomer of HBI-3808),[5]; [13],2.51 % area
same,RRT 1.767,[5]; [13],0.29 % area
